Experimental data from US20230278972A1, “SUBSTITUTED HALOALKYL SULFONANILIDE HERBICIDES” (FMC Corporation, priority 2020, published 2023).

Legend:
Assay type in all cases: in vivo
[1] = test system: wheat (Triticum aestivum); experiment: Test A postemergence, wheat; details: Postemergence, 0 to 100 scale (0 no effect, 100 complete control); for Wheat plant response rating: 500 g ai/ha, visual injury vs untreated controls after approx. 10 days
Method in brief: (§1)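 Preemergence: seeded pots of loam plus sand received a directed soil spray. Postemergence: seedlings at one to two leaves, 2 to 10 cm high, were oversprayed. Each compound was formulated in a non-phytotoxic solvent mix that included a surfactant.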

[2] = test system: ragweed (common ragweed, Ambrosia artemisiifolia); experiment: Test A preemergence, ragweed; details: Preemergence, 0 to 100 scale (0 no effect, 100 complete control)
Method in brief: as §1

[3] = test system: barnyardgrass (Echinochloa crus-galli); experiment: Test A postemergence, barnyardgrass; details: Postemergence, 0 to 100 scale (0 no effect, 100 complete control); for Barnyardgrass plant response rating: 500 g ai/ha, visual injury vs untreated controls after approx. 10 days
Method in brief: as §1

kochia (Bassia scoparia) [4] = experiment: Test A preemergence, kochia; details: Preemergence, 0 to 100 scale (0 no effect, 100 complete control)
Method in brief: as §1

[5] = test system: Ryegrass, Italian (Italian ryegrass, Lolium multiflorum); experiment: Test A preemergence, Ryegrass, Italian; details: Preemergence, 0 to 100 scale (0 no effect, 100 complete control)
Method in brief: as §1

[6] = test system: blackgrass (Alopecurus myosuroides); experiment: Test A postemergence, blackgrass; details: Postemergence, 0 to 100 scale (0 no effect, 100 complete control); for Blackgrass plant response rating: 500 g ai/ha, visual injury vs untreated controls after approx. 10 days
Method in brief: as §1

[7] = test system: pigweed (Amaranthus retroflexus); experiment: Test A preemergence, pigweed; details: 0 to 100 scale (0 no effect, 100 complete control)
Method in brief: as §1

[8] = test system: Foxtail, Giant (giant foxtail, Setaria faberi); experiment: Test A preemergence, Foxtail, Giant; details: Preemergence, 0 to 100 scale (0 no effect, 100 complete control)
Method in brief: as §1

[9] = test system: Foxtail, Giant (giant foxtail, Setaria faberi); experiment: Test A postemergence, Foxtail, Giant; details: Postemergence, 0 to 100 scale (0 no effect, 100 complete control); for Foxtail, Giant plant response rating: 500 g ai/ha, visual injury vs untreated controls after approx. 10 days
Method in brief: as §1

[10] = test system: pigweed (Amaranthus retroflexus); experiment: Test A postemergence, pigweed; details: Postemergence, 0 to 100 scale (0 no effect, 100 complete control); for Pigweed plant response rating: 500 g ai/ha, visual injury vs untreated controls after approx. 10 days
Method in brief: as §1

[11] = test system: galium (catchweed bedstraw, Galium aparine); experiment: Test A postemergence, galium; details: Postemergence, 0 to 100 scale (0 no effect, 100 complete control); for Galium plant response rating: 500 g ai/ha, visual injury vs untreated controls after approx. 10 days
Method in brief: as §1

[12] = test system: ragweed (common ragweed, Ambrosia artemisiifolia); experiment: Test A postemergence, ragweed; details: Postemergence, 0 to 100 scale (0 no effect, 100 complete control); for Ragweed plant response rating: 500 g ai/ha, visual injury vs untreated controls after approx. 10 days
Method in brief: as §1

kochia (Bassia scoparia) [13] = experiment: Test A postemergence, kochia; details: Postemergence, 0 to 100 scale (0 no effect, 100 complete control); for Kochia plant response rating: 500 g ai/ha, visual injury vs untreated controls after approx. 10 days
Method in brief: as §1

[14] = test system: Ryegrass, Italian (Italian ryegrass, Lolium multiflorum); experiment: Test A postemergence, Ryegrass, Italian; details: Postemergence, 0 to 100 scale (0 no effect, 100 complete control); for Ryegrass, Italian plant response rating: 500 g ai/ha, visual injury vs untreated controls after approx. 10 days
Method in brief: as §1

corn (Zea mays) = experiment: Test A postemergence, corn; details: Postemergence, 0 to 100 scale (0 no effect, 100 complete control); for Corn plant response rating: 500 g ai/ha, visual injury vs untreated controls after approx. 10 days
Method in brief: as §1

[15] = test system: barnyardgrass (Echinochloa crus-galli); experiment: Test A preemergence, barnyardgrass; details: Preemergence, 0 to 100 scale (0 no effect, 100 complete control)
Method in brief: as §1

[16] = 125 g ai/ha, visual injury, approx. 10 days
[17] = 1000 g ai/ha, visual injury, approx. 10 days

SMILES	Plant response rating, Wheat ([1]; 125 g ai/ha)	Wheat plant response rating [1]	Plant response rating, Ragweed [2, 16]	Plant response rating, Ragweed ([2]; 500 g ai/ha)	Plant response rating, Barnyardgrass ([3]; 125 g ai/ha)	Barnyardgrass plant response rating [3]	Plant response rating, Kochia (kochia (Bassia scoparia) [4]; [16])	Plant response rating, Kochia (kochia (Bassia scoparia) [4]; 500 g ai/ha)	Plant response rating, Ryegrass, Italian [5, 16]	Plant response rating, Ryegrass, Italian ([5]; 500 g ai/ha)	Plant response rating, Blackgrass ([6]; 125 g ai/ha)	Blackgrass plant response rating [6]	Plant response rating, Pigweed [7, 16]	Plant response rating, Pigweed ([7]; 500 g ai/ha)	Plant response rating, Foxtail, Giant [8, 16]	Plant response rating, Foxtail, Giant ([8]; 500 g ai/ha)	Plant response rating, Foxtail, Giant ([9]; 125 g ai/ha)	Foxtail, Giant plant response rating [9]	Plant response rating, Pigweed ([10]; 125 g ai/ha)	Pigweed plant response rating [10]	other results
Cc1cc(C)c(C(=O)N2CCC3(CCCC3)CC2)cc1NS(=O)(=O)C(F)(F)F [Compound 223]	0	0	0	50	10	20	0	20	30	80	20	0	10	90	60	100	0	0	40	30	Plant response rating, Galium ([11]; 125 g ai/ha): 40; Galium plant response rating [11]: 40; Plant response rating, Ragweed ([12]; 125 g ai/ha): 0; Ragweed plant response rating [12]: 20; Plant response rating, Kochia (kochia (Bassia scoparia) [13]; 125 g ai/ha): 0; Kochia plant response rating (kochia (Bassia scoparia) [13]): 0; Plant response rating, Ryegrass, Italian ([14]; 125 g ai/ha): 0; Ryegrass, Italian plant response rating [14]: 0; Plant response rating, Corn (corn (Zea mays); 125 g ai/ha): 0; Corn plant response rating (corn (Zea mays)): 0; Plant response rating, Barnyardgrass [15, 16]: 30; Plant response rating, Barnyardgrass ([15]; 500 g ai/ha): 50
CC(=O)N(c1cc(C2=NOC3(CCCC3)C2)c(C)cc1C)S(=O)(=O)C(F)(F)F [Compound 220]	20	60	30	60	20	70	20	70	100	100	0	30	70	100	100	100	0	50	0	70	Plant response rating, Galium ([11]; 125 g ai/ha): 60; Galium plant response rating [11]: 80; Plant response rating, Ragweed ([12]; 125 g ai/ha): 0; Ragweed plant response rating [12]: 40; Plant response rating, Kochia (kochia (Bassia scoparia) [13]; 125 g ai/ha): 20; Kochia plant response rating (kochia (Bassia scoparia) [13]): 60; Plant response rating, Ryegrass, Italian ([14]; 125 g ai/ha): 0; Ryegrass, Italian plant response rating [14]: 20; Plant response rating, Corn (corn (Zea mays); 125 g ai/ha): 0; Corn plant response rating (corn (Zea mays)): 30; Plant response rating, Barnyardgrass [15, 16]: 100; Plant response rating, Barnyardgrass ([15]; 500 g ai/ha): 100
COc1cc(Cl)c(NS(=O)(=O)C(F)(F)F)cc1C(=O)N1CCOCC1 [Compound 258]	–	–	–	–	–	–	–	–	–	–	–	–	–	–	–	–	–	–	–	–	Plant response rating, Wheat [1, 17]: 30; Plant response rating, Ragweed ([2]; 1000 g ai/ha): 90; Plant response rating, Barnyardgrass [3, 17]: 70; Plant response rating, Kochia (kochia (Bassia scoparia) [4]; 1000 g ai/ha): 90; Plant response rating, Ryegrass, Italian ([5]; 1000 g ai/ha): 70; Plant response rating, Blackgrass [6, 17]: 50; Plant response rating, Pigweed ([7]; 1000 g ai/ha): 100; Plant response rating, Foxtail, Giant ([8]; 1000 g ai/ha): 90; Plant response rating, Foxtail, Giant [9, 17]: 50; Plant response rating, Pigweed [10, 17]: 80; Plant response rating, Galium [11, 17]: 80; Plant response rating, Ragweed [12, 17]: 80; Plant response rating, Kochia (kochia (Bassia scoparia) [13]; [17]): 90; Plant response rating, Ryegrass, Italian [14, 17]: 70; Plant response rating, Corn (corn (Zea mays); [17]): 10; Plant response rating, Barnyardgrass ([15]; 1000 g ai/ha): 80
CC(=O)OCN(c1cc(C2=NOC3(CCCC3)C2)c(C)cc1C)S(=O)(=O)C(F)(F)F [Compound 218]	10	70	20	90	80	90	30	60	100	100	10	40	80	90	100	100	50	90	50	80	Plant response rating, Galium ([11]; 125 g ai/ha): 60; Galium plant response rating [11]: 80; Plant response rating, Ragweed ([12]; 125 g ai/ha): 40; Ragweed plant response rating [12]: 80; Plant response rating, Kochia (kochia (Bassia scoparia) [13]; 125 g ai/ha): 60; Kochia plant response rating (kochia (Bassia scoparia) [13]): 80; Plant response rating, Ryegrass, Italian ([14]; 125 g ai/ha): 30; Ryegrass, Italian plant response rating [14]: 80; Plant response rating, Corn (corn (Zea mays); 125 g ai/ha): 10; Corn plant response rating (corn (Zea mays)): 70; Plant response rating, Barnyardgrass [15, 16]: 100; Plant response rating, Barnyardgrass ([15]; 500 g ai/ha): 100
